Values quoted from earlier work in patent publication US11839662B2, “Compositions for neuromodulation of mosquito feeding behavior and uses thereof” (University of Central Florida Research Foundation, Inc., priority 2017, dated 2023).

Compound	effect on oviposition and larval hatch rate (Anopheles gambiae)	repellant and larvicidal effect (mosquitoes)
Clc1cccc(Cl)c1N=C1NCCN1 [Clonidine]	decrease oviposition and larval hatch rate	
CC1(C)CCC[C@]2(C)[C@@H](C=O)C(C=O)=CC[C@@H]12 [Polygodial]		repellant ability in mosquitoes and act as a larvacide
